Laboratory results published in ChEMBL document CHEMBL1136187, “Quaternary ammonium 3-(aminoethoxy)pyridines as antinociceptive agents” (Bioorg Med Chem Lett, 2003).

How the values were obtained:
Mus musculus [1] = assay: Antinociceptive response as maximal possible effect upon subcutaneous administration in mice at the dose of 20 mg/kg; type: functional
[2] = target: Neuronal acetylcholine receptor; assay: Binding affinity towards nicotinic acetylcholine receptor (nACh) using [3H](-)-nicotine as radioligand in rat brain; type: tissue-based
Mus musculus [3] = assay: Antinociceptive effect upon intrathecal administration in mouse using tail-flick assay; 10-19; type: functional
Mus musculus [4] = assay: Antinociceptive effect upon subcutaneous administration in mice using tail-flick assay; 12-18; type: functional; details: sc
Mus musculus [5] = assay: Antinociceptive response as maximal possible effect upon intrathecal administration in mouse at the dose of 20 mg/kg; type: functional
Mus musculus [6] = assay: Antinociceptive response as maximal possible effect upon subcutaneous administration in mice at the dose of 15 mg/kg; type: functional
Mus musculus [7] = assay: Antinociceptive effect upon intrathecal administration in mouse using tail-flick assay; 16-23; type: functional
Mus musculus [8] = assay: Antinociceptive effect upon subcutaneous administration in mice using tail-flick assay; 0.9-2.2; type: functional; details: sc
Mus musculus [9] = species on record: Mus musculus; assay: animal or person; details: Tail, sc
Mus musculus [10] = assay: Antinociceptive response as maximal possible effect upon subcutaneous administration in mice at the dose of 10 mg/kg; type: functional
Mus musculus [11] = assay: Antinociceptive response as maximal possible effect upon intrathecal administration in mouse at the dose of 15 mg/kg; type: functional
Mus musculus [12] = assay: Antinociceptive response as maximal possible effect upon intrathecal administration in mouse at the dose of 25 mg/kg; type: functional

## CC[N+](C)(C)CCOc1cccnc1.[Cl-]
Mus musculus [1]
  MPE: 5%
[2]
  Ki: 2.2 nM
Mus musculus [3]
  ED50: 14 ug mouse-1

## CN(C)CCOc1cccnc1.O=C(O)C(=O)O
Mus musculus [4]
  ED50: 15 mg/kg

## COc1ccc(OCC[N+](C)(C)C)cn1
[2]
  Ki: 37 nM

## CCC[N+](C)(C)CCOc1cccnc1.[Cl-]
Mus musculus [5]
  MPE: 3%
[2]
  Ki: 29.2 nM
Mus musculus [6]
  MPE: 1%

## C[N+](C)(C)CCOc1cccnc1.[Cl-]
Mus musculus [7]
  ED50: 19 ug mouse-1
[2]
  Ki: 0.5 nM
Mus musculus [8]
  ED50: 1.4 mg/kg

## CN1CCC[C@H]1c1cccnc1 [NICOTINE]
Mus musculus [9]
  ED50: 1.5 mg/kg

## CC(C)[N+](C)(C)CCOc1cccnc1.[Cl-]
Mus musculus [5]
  MPE: 2%
[2]
  Ki: 13.8 nM
Mus musculus [6]
  MPE: 3%

## C[N+](C)(C)CCOc1ccc(Cl)nc1.[I-]
[2]
  Ki: 1.3 nM
Mus musculus [10]
  MPE: 5%
Mus musculus [11]
  MPE: 4%

## CC[N+](C)(C)CCOc1ccc(Br)nc1.[I-]
[2]
  Ki: 5 nM
Mus musculus [12]
  MPE: 0%
Mus musculus [10]
  MPE: 0%
